Results reported in article PMC8776094, “Reactive Oxygen Species Production Is Responsible for Antineoplastic Activity of Osmium, Ruthenium, Iridium and Rhodium Half-Sandwich Type Complexes with Bidentate Glycosyl Heterocyclic Ligands in Various Cancer Cell Models” (International Journal of Molecular Sciences, 2022).

Legend:
Assay type in all cases: cell-based
[1] = test system: ID8 ovarian cancer cell line; assay: MTT reduction assay, 4 h, rapid toxicity, ID8; details: 4 h treatment; for Maximum Inhibition (%) ID8: MTT assay, ND = not detected or cannot be calculated
Experimental: The compounds were tested between 0.001694 and 33.3333 µM, using a 4-hour-long MTT test to assess rapid toxicity and a 48-hour-long SRB assay to assess the long-term effects of the inhibition of proliferation (cytostasis). The MTT assay assesses the activity of mitochondrial complex I and detects rapid, direct toxicity, as well as indicating apoptosis and necrosis. The SRB assay measures the total protein content that is proportional to cell numbers; therefore, the assay can detect changes in cell numbers and can thus be used as a readout for cell proliferation. The SRB assay was performed after 48 h of treatment (with the exception of L428 cells, which were tested for 96 h due to their slower proliferation rate). In this setting, the SRB assay informs us of long-term changes to cell proliferation. We assessed the maximal inhibition within that concentration range, and descriptive statistics were performed. We performed a one-way ANOVA, followed by the Kruskal–Wallis test, regardless of the normal or non-normal distribution of the data. Due to the large number of significance values, the results of the significance calculations are provided in an Excel spreadsheet at https://figshare.com/s/28d14597d5041f08eb08 (accessed on 6 January 2022), among other primary data of the study. Where possible, nonlinear regression was performed on the curves to determine the IC50 values ((inhibitor) vs. response—variable slope (four parameters) method with Graphpad v8.0.1). […] In Table 5, we added the IC50 values that we determined for a set of 4 active ruthenium half-sandwich complexes we identified previously, to be used in subsequent structure-activity relationship (SAR) analyses.
ID8 cells were cultured in a high-glucose DMEM (4.5 g/L glucose) medium, supplemented with 4% fetal calf serum, 2 mM glutamine, 1% penicillin-streptomycin, and 1% ITS supplement (I3146).
The MTT reduction assay measures the activity of mitochondrial complex I and can be used to detect apoptosis and necrosis. The assay was performed similarly to the method used in [72]. Briefly, cells were plated in 96-well plates the day before the assay. Cells were treated with the compounds for 4 h, then MTT was added at 0.5 mg/mL final concentration and the cells were incubated at 37 °C in a cell incubator. The culture media were removed and the reduced MTT dye was dissolved in dimethyl-sulfoxide (DMSO) and plates were measured in a plate photometer (Thermo Scientific Multiscan GO spectrophotometer, Waltham, MA, USA) at 540 nm. On each plate, wells were designed to contain untreated/vehicle-treated cells. In the calculations, the readings for these wells were considered as 1 and all readings were expressed relative to these values.

[2] = test system: A2780 cells; assay: Annexin V-propidium iodide double staining, cell death, flow cytometry; details: 2 h treatment; Os-3 2.68 µM, Os-4 3.25 µM, Os-5 2.84 µM, Os-6 0.70 µM, Ir-6 1.63 µM
Experimental: We selected the Os-3, Os-4, Os-5, Os-6 and Ir-6 complexes for further study, based on their strong cytostatic activity on the ovarian cancer cell lines, but there was a lack of activity on primary fibroblasts. […] Similar to previous approaches, as propidium iodide or Annexin V positivity is an early feature of cell death, we treated cells for 2 h and then performed double-staining with Annexin V—propidium iodide.
The proportion of dead cells was assessed using the Annexin V–propidium iodide assay and was measured using flow cytometry with a BD FacsCalibur (BD Biosciences, Franklin Lakes, NJ, USA) instrument and the FITC Annexin V/Dead Cell Apoptosis kit (Life Technologies, Eugene, OR, USA), according to the manufacturer’s instructions, in a process similar to that in [43]. Quadrants were set, based on the FITC and PI values observed for the vehicle-treated cells.
Here, 1 × 10^6 A2780 cells were plated in 6-well plates and were treated with the corresponding complexes (Os-3 at 2.68 µM, Os-4 at 3.25 µM, Os-5 at 2.84 µM, Os-6 at 0.70 µM, Ir-6 at 1.63 µM,) and 300 µM hydrogen peroxide for 2 h. Cells were then stained with Annexin V and propidium iodide (PI), then, cells were subjected to flow cytometry as described in the Materials and Methods section. The percentage of cells in the quadrants was plotted. Data are represented as average ± SD, from three biological replicates; individual assays were performed in duplicate. Normality was tested, on all datasets. A two-step transformation was used to achieve normal distribution. Statistical significance was determined using a two-way ANOVA test; all measurement points were compared with each other. ** and *** indicate statistically significant differences between vehicle-treated (control) and treated cells ([…] or 300 µM H2O2) corresponding to the same quadrant (e.g., vehicle-treated double-negative cells vs. Os-3-treated double-negative cells) at p < 0.01 and p < 0.001, respectively.

[3] = test system: A2780 cells; assay: SRB assay with or without 1 mM vitamin E co-treatment; details: 48 h SRB
Experimental: To assess the causative role of oxidative stress in cytostasis induced by the compounds we identified in this study, we co-treated cells with the compounds and with vitamin E, a lipophilic antioxidant.
The assay was performed similarly to the method used in [73]. Cells were seeded in 96-well plates the day before the assay. Cells were treated with the compounds for 48 h, with the exception of L428, where 96 h of treatment was applied. Cells were fixed with 10% trichloroacetic acid (TCA). Fixed cells were washed in distilled water 3 times, followed by staining with SRB (0.4 m/V% dissolved in 1% acetic acid) for 10 min. The stained cells were washed in 1% acetic acid 5 times; the acetic acid was removed, and the cells were left to dry. Protein-bound SRB was released by adding 100 µL 10 mM Tris base. Plates were measured in a plate photometer (Thermo Scientific Multiscan GO spectrophotometer, Waltham, MA, USA) at 540 nm. On each plate, wells were designed to contain untreated cells. In calculations, the readings for these wells were considered as 1 and all readings were expressed relative to these values.
Figure 10 Assessment of selected Os(II) and Ir(III) complexes (Os-3‒Os-6, Ir-6) for cytostatic activity. Here, 1.5 × 10^3 A2780 cells were plated onto 96-well plates. Cells were treated with the compounds in the concentrations indicated for 48 h for an SRB assay with or without 1 mM vitamin E. Data are represented as average ± SD, from three biological replicates; individual assays were performed in duplicate. Values were normalized for vehicle-treated cells. Absorbance for vehicle-treated cells is equal to 1. Normality was assessed using the d’Agostino and Pearson test. Os-3, Os-4, Os-6, Ir-6 data had normal distribution, while in Os-5, normality was achieved using the Box-Cox normalization method. Statistical difference was assessed using a two-way ANOVA test; all measurement points were compared with each other. *, ** and *** indicate statistically significant differences between vehicle-treated (control) cells and those treated with a compound but not with vitamin E, at p < 0.05 and p < 0.001, respectively. #, ##, and ### indicate statistically significant differences between vehicle-treated (no Vitamin E) and the cells treated with a Vitamin E at p < 0.05, p < 0.01 and p < 0.001, respectively. !, !!, and !!! indicate statistically significant differences between vitamin E and vehicle-treated cells (control) and the cells treated with vitamin E and a compound at p < 0.05, p < 0.01 and p < 0.001, respectively.

Structure (SMILES)	cytotoxicity on ID8 cells, MTT assay (in words) [1]	Maximum Inhibition (%) ID8 [1]	induction of cell death (Annexin V / propidium iodide positivity) [2]	effect of vitamin E on the cytostatic properties of the complex [3]
Cc1c(C)c(C)[c-](C)c1C.F[P-](F)(F)(F)(F)F.O=C(OCC1OC(n2cc(-c3ccccn3)nn2)C(OC(=O)c2ccccc2)C(OC(=O)c2ccccc2)C1OC(=O)c1ccccc1)c1ccccc1.[Cl][Ir+2] (mixture of isomers) [Ir-6]	mild cytotoxicity	62.71%	None of the complexes induced cell death	potently inhibited by vitamin E
Cc1ccc(C(C)C)cc1.F[P-](F)(F)(F)(F)F.O=C(OCC1OC(c2nnc(-c3ccccn3)o2)C(OC(=O)c2ccccc2)C(OC(=O)c2ccccc2)C1OC(=O)c1ccccc1)c1ccccc1.[Cl][Os+] (mixture of isomers) [Os-3]	cytotoxic capacity to a greater extent than on A2780 cells	35.24%	None of the complexes induced cell death	potently inhibited by vitamin E
Cc1ccc(C(C)C)cc1.F[P-](F)(F)(F)(F)F.O=C(OCC1OC(c2nnc(-c3ccccn3)o2)C(OC(=O)c2ccccc2)C(OC(=O)c2ccccc2)C1OC(=O)c1ccccc1)c1ccccc1.[Cl][Os+] (mixture of isomers) [Os-4]	–	22.91%	None of the complexes induced cell death	potently inhibited by vitamin E
Cc1ccc(C(C)C)cc1.F[P-](F)(F)(F)(F)F.O=C(OC1COC(c2nnc(-c3ccccn3)o2)C(OC(=O)c2ccccc2)C1OC(=O)c1ccccc1)c1ccccc1.[Cl][Os+] (mixture of isomers) [Os-5]	cytotoxic capacity to a greater extent than on A2780 cells	59.51%	None of the complexes induced cell death	potently inhibited by vitamin E
Cc1ccc(C(C)C)cc1.F[P-](F)(F)(F)(F)F.O=C(OCC1OC(n2cc(-c3ccccn3)nn2)C(OC(=O)c2ccccc2)C(OC(=O)c2ccccc2)C1OC(=O)c1ccccc1)c1ccccc1.[Cl][Os+] (mixture of isomers) [Os-6]	cytotoxic capacity to a greater extent than on A2780 cells	64.44%	None of the complexes induced cell death	potently inhibited by vitamin E
